Source: patent US8192962B2, “Processes for detecting toxic substances” (Daikin Industries, Ltd., priority 2001, dated 2012)

Tested on: Genes belonging to other category
Experiment: DNA chip mRNA expression in yeast, genes belonging to other category (Table 9)
Type: cell-based, Saccharomyces cerevisiae S288C
Outline: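 First, S288C yeast grown in YPD at 25° C. are dosed in log phase with one toxicant (growth-inhibiting, not lethal) for 2 h. Next, total RNA is extracted and poly(A) mRNA isolated and reverse-transcribed with Cy3/Cy5-dUTP. Finally, whole-genome chip fluorescence is read relative to unexposed cells.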

N#Cc1c(Cl)c(Cl)c(Cl)c(C#N)c1Cl [(9), 2,4,5,6-tetrachloro-1,3-benzenedicarbonitrile]
The level of expressed mRNA in the presence of chemical substance/The level of expressed mRNA in the absence of chemical substance (yeast gene YJR091C): 2.4
The level of expressed mRNA in the presence of chemical substance/The level of expressed mRNA in the absence of chemical substance (yeast gene YJR099W): 1.4
The level of expressed mRNA in the presence of chemical substance/The level of expressed mRNA in the absence of chemical substance (yeast gene YJR110W): 4.9
The level of expressed mRNA in the presence of chemical substance/The level of expressed mRNA in the absence of chemical substance (yeast gene YJR122W): 5.3
The level of expressed mRNA in the presence of chemical substance/The level of expressed mRNA in the absence of chemical substance (yeast gene YKL008C): 0.3
The level of expressed mRNA in the presence of chemical substance/The level of expressed mRNA in the absence of chemical substance (yeast gene YKL013C): 1.5
The level of expressed mRNA in the presence of chemical substance/The level of expressed mRNA in the absence of chemical substance (yeast gene YKL039W): 1.3
The level of expressed mRNA in the presence of chemical substance/The level of expressed mRNA in the absence of chemical substance (yeast gene YKL041W): 1.6
The level of expressed mRNA in the presence of chemical substance/The level of expressed mRNA in the absence of chemical substance (yeast gene YKL079W): 2.3
The level of expressed mRNA in the presence of chemical substance/The level of expressed mRNA in the absence of chemical substance (yeast gene YKL096W): 0.0
The level of expressed mRNA in the presence of chemical substance/The level of expressed mRNA in the absence of chemical substance (yeast gene YKL139W): 1.6
The level of expressed mRNA in the presence of chemical substance/The level of expressed mRNA in the absence of chemical substance (yeast gene YKL165C): 0.4
The level of expressed mRNA in the presence of chemical substance/The level of expressed mRNA in the absence of chemical substance (yeast gene YKL193C): 1.0
The level of expressed mRNA in the presence of chemical substance/The level of expressed mRNA in the absence of chemical substance (yeast gene YKL196C): 4.3
The level of expressed mRNA in the presence of chemical substance/The level of expressed mRNA in the absence of chemical substance (yeast gene YKR014C): 2.4
The level of expressed mRNA in the presence of chemical substance/The level of expressed mRNA in the absence of chemical substance (yeast gene YKR068C): 2.4
The level of expressed mRNA in the presence of chemical substance/The level of expressed mRNA in the absence of chemical substance (yeast gene YLL054C): 2.4
The level of expressed mRNA in the presence of chemical substance/The level of expressed mRNA in the absence of chemical substance (yeast gene YLR080W): 2.3
The level of expressed mRNA in the presence of chemical substance/The level of expressed mRNA in the absence of chemical substance (yeast gene YLR093C): 1.5
The level of expressed mRNA in the presence of chemical substance/The level of expressed mRNA in the absence of chemical substance (yeast gene YLR118C): 1.1
The level of expressed mRNA in the presence of chemical substance/The level of expressed mRNA in the absence of chemical substance (yeast gene YLR120C): 1.8
The level of expressed mRNA in the presence of chemical substance/The level of expressed mRNA in the absence of chemical substance (yeast gene YLR136C): 0.9
The level of expressed mRNA in the presence of chemical substance/The level of expressed mRNA in the absence of chemical substance (yeast gene YLR178C): 4.3
The level of expressed mRNA in the presence of chemical substance/The level of expressed mRNA in the absence of chemical substance (yeast gene YLR206W): 1.5
The level of expressed mRNA in the presence of chemical substance/The level of expressed mRNA in the absence of chemical substance (yeast gene YLR248W): 2.3
The level of expressed mRNA in the presence of chemical substance/The level of expressed mRNA in the absence of chemical substance (yeast gene YLR250W): 2.7
The level of expressed mRNA in the presence of chemical substance/The level of expressed mRNA in the absence of chemical substance (yeast gene YLR251W): 2.1
The level of expressed mRNA in the presence of chemical substance/The level of expressed mRNA in the absence of chemical substance (yeast gene YLR327C): 3.0
The level of expressed mRNA in the presence of chemical substance/The level of expressed mRNA in the absence of chemical substance (yeast gene YLR356W): 2.3
The level of expressed mRNA in the presence of chemical substance/The level of expressed mRNA in the absence of chemical substance (yeast gene YLR362W): 3.5
The level of expressed mRNA in the presence of chemical substance/The level of expressed mRNA in the absence of chemical substance (yeast gene YLR389C): 2.4
The level of expressed mRNA in the presence of chemical substance/The level of expressed mRNA in the absence of chemical substance (yeast gene YLR391W): 0.4
The level of expressed mRNA in the presence of chemical substance/The level of expressed mRNA in the absence of chemical substance (yeast gene YLR429W): 0.9
The level of expressed mRNA in the presence of chemical substance/The level of expressed mRNA in the absence of chemical substance (yeast gene YMR004W): 94.2
The level of expressed mRNA in the presence of chemical substance/The level of expressed mRNA in the absence of chemical substance (yeast gene YMR027W): 1.1
The level of expressed mRNA in the presence of chemical substance/The level of expressed mRNA in the absence of chemical substance (yeast gene YMR053C): 2.2
The level of expressed mRNA in the presence of chemical substance/The level of expressed mRNA in the absence of chemical substance (yeast gene YMR077C): 1.9
The level of expressed mRNA in the presence of chemical substance/The level of expressed mRNA in the absence of chemical substance (yeast gene YMR091C): 2.1
The level of expressed mRNA in the presence of chemical substance/The level of expressed mRNA in the absence of chemical substance (yeast gene YMR094W): −0.1
The level of expressed mRNA in the presence of chemical substance/The level of expressed mRNA in the absence of chemical substance (yeast gene YMR104C): 0.6
The level of expressed mRNA in the presence of chemical substance/The level of expressed mRNA in the absence of chemical substance (yeast gene YMR110C): 2.3
The level of expressed mRNA in the presence of chemical substance/The level of expressed mRNA in the absence of chemical substance (yeast gene YMR112C): 1.4
The level of expressed mRNA in the presence of chemical substance/The level of expressed mRNA in the absence of chemical substance (yeast gene YMR139W): 2.8
The level of expressed mRNA in the presence of chemical substance/The level of expressed mRNA in the absence of chemical substance (yeast gene YMR197C): 1.9
The level of expressed mRNA in the presence of chemical substance/The level of expressed mRNA in the absence of chemical substance (yeast gene YMR219W): 2.3
The level of expressed mRNA in the presence of chemical substance/The level of expressed mRNA in the absence of chemical substance (yeast gene YMR226C): 2.6
The level of expressed mRNA in the presence of chemical substance/The level of expressed mRNA in the absence of chemical substance (yeast gene YMR238W): 1.3
The level of expressed mRNA in the presence of chemical substance/The level of expressed mRNA in the absence of chemical substance (yeast gene YMR262W): 3.0
The level of expressed mRNA in the presence of chemical substance/The level of expressed mRNA in the absence of chemical substance (yeast gene YMR275C): 2.4
The level of expressed mRNA in the presence of chemical substance/The level of expressed mRNA in the absence of chemical substance (yeast gene YMR276W): 1.8
